Results as given in patent US6770597B2, “Benzohydrazide derivatives as herbicides and desiccant compositions containing them” (Ishihara Sangyo Kaisha, Ltd., priority 2002, dated 2004).

What was measured:
Type in all cases: in vivo
[1] = test system: barnyardgrass (Echinochloa crus-galli, ECHCG); test: Greenhouse herbicide screen, post-emerge application, phytotoxicity rating; conditions: POST emergent, 63 g ai/ha, 14 days after application, scale 0-100
Source text: (§1) A standard greenhouse herbicide activity screening system was used to evaluate the herbicidal efficacy and crop safety of these test compounds. Seven broadleaf weed species including redroot pigweed (Amaranthus retrofiexus, AMARE), velvetleaf (Abutilon theophrasti, ABUTH), sicklepod (Cassia obtusifolia, CASOB), ivyleaf morningglory (Ipomoea hederacea, IPOHE), lambsquarters (Chenopodium album, CHEAL), common ragweed (Ambrosia artemisiifolia L., AMBEL), and cocklebur (Xanthium strumarium, XANST) were used as test species. Four grass weed species including green foxtail (Setaria viridis, SETVI), barnyardgrass (Echinochloa crus-galli, ECHCG), johnsongrass (Sorghum halepense, SORHA), and large crabgrass (Digitaria sanguinalis, DIGSA) were also used. In addition, four crop species, field corn (Zea mays L., var. Dekalb 535, CORN), soybean (Glycine max L., var. Pella 86, SOY), upland rice (Oryza sp., var.Cocodrie, RICE) and wheat (Triticum aestivum L.) were included.
(§2) All plants were grown in 10 cm square plastic pots which were filled with a sandy loam soil mix. For pre-emerge tests, seeds were planted one day prior to application of the test compounds. For post-emerge tests, seeds were planted 8-21 days prior to the test to allow emergence and good foliage development prior to application of the test substances. At the time of the post-emerge application, plants of all species were usually at the 2-3 leaf stage of development.
(§3) All test compounds were dissolved in acetone and applied to the test units in a volume of 187 l/ha. Test materials were applied at rates ranging from 15 g ai/ha to 1000 g ai/ha using a track sprayer equipped with a TJ8001E even flow flat fan spray nozzle. Plants were arranged on a shelf so that the top of the canopy (post-emerge) or top of the soil surface (pre-emerge) was 40-45 cm below the nozzle. Pressurized air was used to force the test solution through the nozzle as it was mechanically advanced (via electrically driven chain drive) over the top of all test plants/pots. This application simulates a typical commercial field herbicide application.
(§4) Pre-emergence tests were top watered immediately after treatment to incorporate the test materials, then routinely top-watered for normal growth. Post-emerge test units were always bottom-watered.
(§5) At 14 days after application of the test materials, phytotoxicity ratings were recorded. A rating scale of 0-100 was used as previously described in Research Methods in Weed Science, 2nd edition, B. Truelove, Ed., Southern Weed Science Society, Auburn University, Auburn, Ala., 1977. Briefly, “0” corresponds to no damage and “100” corresponds to complete death of all plants in the test unit. This scale was used both to determine efficacy against weed species and damage to crop species. Herbicide activity data for various compounds of this invention, which are shown by compound No. in Tables 1-12, are shown in Tables 13 and 14.

[2] = test system: lambsquarters (Chenopodium album, CHEAL); test: as above; conditions: POST emergent, 63 g ai/ha, 14 days after application, scale 0-100
Source text: as §1, §2, §3, §4, §5

[3] = test system: common ragweed (Ambrosia artemisiifolia L., AMBEL); test: as above; conditions: POST emergent, 63 g ai/ha, 14 days after application, scale 0-100
Source text: as §1, §2, §3, §4, §5

[4] = test system: cocklebur (Xanthium strumarium, XANST); test: as above; conditions: POST emergent, 63 g ai/ha, 14 days after application, scale 0-100
Source text: as §1, §2, §3, §4, §5

[5] = test system: redroot pigweed (Amaranthus retrofiexus, AMARE); test: as above; conditions: POST emergent, 63 g ai/ha, 14 days after application, scale 0-100 (0 no damage, 100 complete death)
Source text: as §1, §2, §3, §4, §5

[6] = test system: johnsongrass (Sorghum halepense, SORHA); test: as above; conditions: POST emergent, 63 g ai/ha, 14 days after application, scale 0-100
Source text: as §1, §2, §3, §4, §5

[7] = test system: ivyleaf morningglory (Ipomoea hederacea, IPOHE); test: as above; conditions: POST emergent, 63 g ai/ha, 14 days after application, scale 0-100
Source text: as §1, §2, §3, §4, §5

[8] = test system: green foxtail (Setaria viridis, SETVI); test: as above; conditions: POST emergent, 63 g ai/ha, 14 days after application, scale 0-100
Source text: as §1, §2, §3, §4, §5

[9] = test system: sicklepod (Cassia obtusifolia, CASOB); test: as above; conditions: POST emergent, 63 g ai/ha, 14 days after application, scale 0-100
Source text: as §1, §2, §3, §4, §5

[10] = test system: large crabgrass (Digitaria sanguinalis, DIGSA); test: as above; conditions: POST emergent, 63 g ai/ha, 14 days after application, scale 0-100
Source text: as §1, §2, §3, §4, §5

[11] = test system: velvetleaf (Abutilon theophrasti, ABUTH); test: as above; conditions: POST emergent, 63 g ai/ha, 14 days after application, scale 0-100
Source text: as §1, §2, §3, §4, §5

[12] = test system: barnyardgrass (Echinochloa crus-galli, ECHCG); test: Greenhouse herbicide screen, pre-emerge application, phytotoxicity rating; conditions: PRE emergent, 63 g ai/ha, 14 days after application, rating scale 0-100
Source text: as §1, §2, §3, §4, §5

[13] = test system: lambsquarters (Chenopodium album, CHEAL); test: as above; conditions: PRE emergent, 63 g ai/ha, 14 days after application, rating scale 0-100
Source text: as §1, §2, §3, §4, §5

[14] = test system: common ragweed (Ambrosia artemisiifolia L., AMBEL); test: as above; conditions: PRE emergent, 63 g ai/ha, 14 days after application, rating scale 0-100
Source text: as §1, §2, §3, §4, §5

[15] = test system: cocklebur (Xanthium strumarium, XANST); test: as above; conditions: PRE emergent, 63 g ai/ha, 14 days after application, rating scale 0-100
Source text: as §1, §2, §3, §4, §5

[16] = test system: redroot pigweed (Amaranthus retrofiexus, AMARE); test: as above; conditions: PRE emergent, 63 g ai/ha, 14 days after application, rating scale 0-100
Source text: as §1, §2, §3, §4, §5

[17] = test system: johnsongrass (Sorghum halepense, SORHA); test: as above; conditions: PRE emergent, 63 g ai/ha, 14 days after application, rating scale 0-100
Source text: as §1, §2, §3, §4, §5

[18] = test system: ivyleaf morningglory (Ipomoea hederacea, IPOHE); test: as above; conditions: PRE emergent, 63 g ai/ha, 14 days after application, rating scale 0-100
Source text: as §1, §2, §3, §4, §5

[19] = test system: green foxtail (Setaria viridis, SETVI); test: as above; conditions: PRE emergent, 63 g ai/ha, 14 days after application, rating scale 0-100
Source text: as §1, §2, §3, §4, §5

[20] = test system: sicklepod (Cassia obtusifolia, CASOB); test: as above; conditions: PRE emergent, 63 g ai/ha, 14 days after application, rating scale 0-100
Source text: as §1, §2, §3, §4, §5

[21] = test system: large crabgrass (Digitaria sanguinalis, DIGSA); test: as above; conditions: PRE emergent, 63 g ai/ha, 14 days after application, rating scale 0-100
Source text: as §1, §2, §3, §4, §5

[22] = test system: velvetleaf (Abutilon theophrasti, ABUTH); test: as above; conditions: PRE emergent, 63 g ai/ha, 14 days after application, rating scale 0-100
Source text: as §1, §2, §3, §4, §5

Structure (SMILES): CC(=O)OC(=NN=C(C)C(C)(C)C)c1cc(-n2c(=O)cc(C(F)(F)F)n(C)c2=O)c(F)cc1Cl [Compound 5-2, 2-chloro-5-(3,6-dihydro-3-methyl-2,6-dioxo-4-(trifluoromethyl)-1(2H)-pyrimidinyl)-4-fluoro-N-(1,2,2-trimethylpropylidene)-benzenecarbohydrazonic Acid, Acetyl Ester]
- phytotoxicity rating ECHCO [1]: 95
- phytotoxicity rating CHEAL [2]: 100
- phytotoxicity rating AMBEL [3]: 90
- phytotoxicity rating XANST [4]: 99
- phytotoxicity rating AMARE [5]: 95
- phytotoxicity rating SORHA [6]: 55
- phytotoxicity rating IPOHE [7]: 100
- phytotoxicity rating SETVI [8]: 50
- phytotoxicity rating CASOB [9]: 55
- phytotoxicity rating DIGSA [10]: 50
- phytotoxicity rating ABUTH [11]: 100
- phytotoxicity rating ECHCG [12]: 40
- phytotoxicity rating CHEAL [13]: 100
- phytotoxicity rating AMBEL [14]: 60
- phytotoxicity rating XANST [15]: 0
- phytotoxicity rating AMARE [16]: 100
- phytotoxicity rating SORHA [17]: 70
- phytotoxicity rating IPOHE [18]: 95
- phytotoxicity rating SETVI [19]: 70
- phytotoxicity rating CASOB [20]: 55
- phytotoxicity rating DIGSA [21]: 60
- phytotoxicity rating ABUTH [22]: 95
